Data on 17 compounds can be found in patent US8008329B2 (Dong Wha Pharmaceutical Co., Ltd., priority 2008, dated 2011).

Marks after values point to notes of the source that are not given here.

The test system of the test is osteoclast differentiation. The experiment in a line: Osteoclast differentiation in co-culture of mouse bone marrow cells and ST2 cells, TRAP staining (Examples 8-9). In kind it is cell-based. To be noted: for % number of osteoclast (vs. solvent control group): 0.1 μM each, day 7; for activity at 0.1 µM: Mus musculus, Osteoclast, 168 h, Individual treatment (compounds), day 7, read-out: % number of osteoclast (vs. solvent control group). The protocol: The differentiation of osteoclast from mouse bone marrow cells was induced by using co-culture system, and inhibitory effect of the drug on osteoclast differentiation was evaluated by treatment of single or combination formulation. Co-culture was performed using mouse bone marrow cells and ST cells of bone marrow-derived stromal cell.
Femora and tibia were aseptically ectomized from 6˜8 week-old male ddY mice to harvest bone marrow cells by a general method using a syringe. The red blood cells were removed from the bone marrow cells, followed by centrifugation. The bone marrow cells were suspended in α-MEM medium supplemented with 10% fetal bovine serum, and the numbers of the eukaryotic cells in the harvested bone marrow cells were counted and then immediately used for a co-culture system.
ST2 cells (RIKEN Cell Bank, Tsukuba, Japan) were cultured in α-MEM medium supplemented with 10% fetal bovine serum until confluent. Then, these cells were diluted to a desired cell number, and used for the experiment.
The bone marrow cells (1×10^5 cells/well) and ST2 cells (3,000 cells/well) prepared in the above were plated in a 96-well plate using α-MEM medium supplemented with 10% fetal bovine serum. At this time, differentiation factors, 1α,25-dihydroxyvitamin D3 (10^−8 M, hereinbelow, referred to as vitamin D3) and dexamethasone (10^−8 M), were co-added to the medium to induce osteoclast differentiation. The medium was replaced with fresh media containing the differentiation factors every 2 to 3 days.
After 7 days, when multinucleated osteoclasts were observed, the medium was removed from the wells, and then the cells were fixed with PBS containing 10% Formalin. Tartrate-Resistant Acid Phosphatase (hereinbelow, referred to as TRAP) was used as a marker to measure the mature osteoclast in consideration of its characteristics showing a positive reaction to a TRAP staining solution. The TRAP staining solution was prepared in such the manner that a substrate, naphtol AS-MS phosphate and a coloring agent (Fast Red Violet LB salt) were dissolved in N,N-dimethylformamide. A 0.1 N NaHCO3 buffer solution containing 50 mM tartaric acid was added thereto, and the mixture was stored at a refrigerator prior to use as a staining solution. The osteoclasts with 6-7 or more nuclei showing a TRAP-positive reaction were counted under a microscope.
Alendronic acid was dissolved in distilled water at a concentration of 0.1 mM, and benzamidine derivatives were dissolved in DMSO at a concentration of 0.1 mM. All of them were diluted 1,000 fold with the differentiation media to a final concentration of 0.1 μM, respectively. In this connection, a control group was maintained in 0.1% DMSO.
As the above described, the sample substances and cells, which were diluted to the desired concentrations, were plated in 96-well plate, and co-cultured. On days 3 and 5 of culture, the media were replaced with fresh differentiation media containing the sample substances. On day 7 of culture, TRAP staining was performed to count the mature multinucleated osteoclast that was formed by differentiation. The mature osteoclasts with 6 or more nuclei were counted under a microscope. The results were expressed as a percentage (%) of the number of mature osteoclast observed in each experimental group, when the number of mature osteoclast in the control group (solvent only) was regarded as 100%. The experiment was performed with 4 wells per experimental group (n=4), and the results were expressed as mean value±standard deviation. In addition, the experiment was repeated at least two times, and Student t-test was applied for significant difference between experimental groups.
The experiment was performed in the same manner as in Example 8 to evaluate the effect of individual or combination treatment of risedronic acid and benzamidine derivatives of Formula 1 on osteoclast differentiation, except using 0.1 μM risedronic acid instead of 0.1 μM alendronic acid. […]

The mark [1] stands for this setting: Combination treatment (alendronic acid + compounds).
Setting [2] is: Combination treatment (risedronic acid + compounds).

As to `CC(C)c1sc(N(C)Cc2cccnc2)nc1-c1ccc(OCCCCCOc2ccc(C(=N)NO)cc2)cc1` [Compound 141, N-hydroxy-4-[5-(4-{5-isopropyl-2-[methyl-(pyridin-3-ylmethyl)amino]-1,3-thiazol-4-yl}phenoxy)pentyloxy]-benzamidine], the activity at 0.1 µM amounted to 84 ± 8.8%. Also, the “% number of osteoclast (vs. solvent control group)” value (“% number of osteoclast” for short) under setting [1] was 65 ± 2.8%. The “% number of osteoclast” value under setting [2] is on record as 60 ± 7.5^ac %.

As for `CCc1sc(-c2cccnc2)nc1-c1ccc(OCCCCCOc2ccc(C(=N)NO)cc2)cc1` [Compound 21, N-hydroxy-4-{5-[4-(5-ethyl-2-pyridin-3-yl-1,3-thiazol-4-yl)phenoxy]pentyloxy}-benzamidine], the activity at 0.1 µM was determined as 52 ± 10.4%. Besides, under setting [1], the “% number of osteoclast” value is recorded as 22 ± 7.1^ab %. Moreover, the “% number of osteoclast” value under setting [2] amounted to 47 ± 10.1%.

For `CC(C)C(=O)N(C)c1nc(-c2ccc(OCCCCCOc3ccc(C(=N)NO)cc3)cc2)c(CCN2CCOCC2)s1` [Compound 268, N-hydroxy-4-(5-{4-[2-(isobutyryl-methyl-amino)-5-(2-morpholin-4-yl-ethyl)-thiazol-4-yl]-phenoxy}-pentyloxy)-benzamidine], the activity at 0.1 µM came to 52 ± 9.1%. Besides, the “% number of osteoclast” value under setting [1] was 28 ± 1.7^b %. Besides, the “% number of osteoclast” value under setting [2] is listed as 17 ± 3.4^ac %.

In the case of `CCN(CC)CCc1sc(C)nc1-c1ccc(OCCCCCOc2ccc(C(=N)NO)cc2)cc1` [Compound 224, N-hydroxy-4-(5-{4-[5-(2-diethylamino-ethyl)-2-methyl-thiazol-4-yl]-phenoxy}-pentyloxy)-benzamidine], the activity at 0.1 µM was found to be 77 ± 8.4%. Also, the “% number of osteoclast” value under setting [1] is recorded as 53 ± 2.9^ab %. Moreover, the “% number of osteoclast” value under setting [2] was found to be 58 ± 10.8%.

For `Cc1nc(-c2ccc(OCCCCCNc3ccc(C(=N)NO)cc3)cc2)c(C(C)C)s1` [Compound 177, N-hydroxy-4-{5-[4-(5-isopropyl-2-methyl-1,3-thiazol-4-yl)-phenoxy]-pentylamino}-benzamidine], the activity at 0.1 µM amounted to 74 ± 10.1%. The “% number of osteoclast” value under setting [1] is given as 34 ± 10.2^ab %. Besides, the “% number of osteoclast” value under setting [2] is on record as 34 ± 5.7^ac %.

For the compound `CCc1sc(C2CCCCC2)nc1-c1ccc(OCCCCOc2ccc(C(=N)NO)cc2)cc1` [Compound 196, N-hydroxy-4-{4-[4-(2-cyclohexyl-5-ethyl-thiazol-4-yl)-phenoxy]-butoxy}-benzamidine], the activity at 0.1 µM came out at 68 ± 7.1%. Further, the “% number of osteoclast” value under setting [1] is 37 ± 4.6^ab %. Also, under setting [2], the “% number of osteoclast” value is given as 42 ± 8.8^ac %.

Take `Cc1nc(-c2ccc(OCCCCCOc3ccc(C(=N)NO)cc3)cc2)c(N)s1` [Compound 331, N-hydroxy-4-{5-[4-(5-amino-2-methyl-thiazol-4-yl)-phenoxy]-pentyloxy}-benzamidine]: the activity at 0.1 µM worked out at 43 ± 2.7%. Also, the “% number of osteoclast” value under setting [1] is given as 18 ± 4.6^ab %. Besides, under setting [2], the “% number of osteoclast” value is given as 7 ± 1.2^ac %.

For the compound `CC(C)c1nc(-c2ccc(OCCCCCOc3ccc(C(=N)NO)cc3)cc2)c(CC2CCCC2)s1` [Compound 47, N-hydroxy-4-{5-[4-(5-cyclopentylmethyl-2-isopropyl-1,3-thiazol-4-yl)phenoxy]pentyloxy}-benzamidine], the activity at 0.1 µM is 57 ± 7.9%. Further, under setting [1], the “% number of osteoclast” value is listed as 42 ± 4.6^b %. Under setting [2], the “% number of osteoclast” value is 32 ± 3.0^ac %.

In the case of `Cc1nc(-c2ccc(OCCCCCOc3ccc(C(=N)NO)cc3)cc2)c(CCN2CCN(C)CC2)s1` [Compound 232, N-hydroxy-4-[5-(4-{2-methyl-5-[2-(4-methyl-piperazin-1-yl)-ethyl]-thiazol-4-yl}-phenoxy)-pentyloxy]-benzamidine], the activity at 0.1 µM stood at 47 ± 9.4%. Further, under setting [1], the “% number of osteoclast” value was 39 ± 5.2^b %. Besides, the “% number of osteoclast” value under setting [2] is 37 ± 4.9^c %.

Consider `Cc1nc(-c2ccc(OCCCCCOc3ccc(C(=N)NO)cc3)cc2)c(N2CCOCC2)s1` [Compound 286, N-hydroxy-4-{5-[4-(2-methyl-5-morpholin-4-yl-thiazol-4-yl)-phenoxy]-pentyloxy}-benzamidine], for which the activity at 0.1 µM was determined as 43 ± 6.1%. Moreover, under setting [1], the “% number of osteoclast” value is 29 ± 4.1^b %. The “% number of osteoclast” value under setting [2] is reported as 26 ± 1.5^ac %.

Take `N=C(NO)c1ccc(OCCCCCOc2ccc(-c3nc(-c4ccccc4)sc3CCN3CCOCC3)cc2)cc1` [Compound 254, N-hydroxy-4-(5-{4-[5-(2-morpholin-4-yl-ethyl)-2-phenyl-thiazol-4-yl]-phenoxy}-pentyloxy)-benzamidine]: the activity at 0.1 µM came out at 40 ± 8.3%. Also, under setting [1], the “% number of osteoclast” value is 29 ± 6.3^b %. The “% number of osteoclast” value under setting [2] is listed as 11 ± 2.5^ac %.

Consider `CN(Cc1cccnc1)c1nc(-c2ccc(OCCCCCOc3ccc(C(=N)NO)cc3)cc2)c(CN2CCOCC2)s1` [Compound 321, N-hydroxy-4-(5-{4-[2-(methyl-pyridin-3-ylmethyl-amino)-5-morpholin-4-ylmethyl-thiazol-4-yl]-phenoxy}-pentyloxy)-benzamidine], for which the activity at 0.1 µM came out at 48 ± 7%. Under setting [1], the “% number of osteoclast” value is given as 19 ± 4.1^ab %. Further, the “% number of osteoclast” value under setting [2] is given as 18 ± 3.0^ac %.

In the case of `Cc1nc(-c2ccc(OCCCCCOc3ccc(C(=N)NO)cc3)cc2)c(CN2CCCCC2)s1` [Compound 296, N-hydroxy-4-{5-[4-(2-methyl-5-piperidin-1-ylmethyl-thiazol-4-yl)-phenoxy]-pentyloxy}-benzamidine], the activity at 0.1 µM was determined as 46 ± 3.6%. Besides, the “% number of osteoclast” value under setting [1] is on record as 13 ± 2.6^ab %. Besides, the “% number of osteoclast” value under setting [2] is reported as 8 ± 1.7^ac %.

Take `CCc1sc(N(Cc2cccnc2)Cc2cccnc2)nc1-c1ccc(OCCCCCOc2ccc(C(=N)NO)cc2)cc1` [Compound 137, N-hydroxy-4-[5-(4-{2-[bis-(pyridin-3-ylmethyl)amino]-5-ethyl-1,3-thiazol-4-yl}phenoxy)pentyloxy]-benzamidine]: the activity at 0.1 µM came out at 19 ± 2.9%. For the same compound, under setting [1], the “% number of osteoclast” value is 11 ± 4.3^b %. The “% number of osteoclast” value under setting [2] was 7 ± 2.2^ac %.

For `Cc1nc(-c2ccc(OCCCCCOc3ccc(C(=N)NO)cc3)cc2)c(CCn2ccnc2)s1` [Compound 222, N-hydroxy-4-(5-{4-[5-(2-imidazol-1-yl-ethyl)-2-methyl-thiazol-4-yl]-phenoxy}-pentyloxy)-benzamidine], the activity at 0.1 µM was 74 ± 7.1%. Besides, under setting [1], the “% number of osteoclast” value is given as 49 ± 6.8^ab %. The “% number of osteoclast” value under setting [2] is given as 36 ± 6.6^ac %.

Turning to `Cc1nc(-c2ccc(OCCCCCOc3ccc(C(=N)NO)cc3)cc2)c(CCNCCCOC(C)C)s1` [Compound 220, N-hydroxy-4-[5-(4-{5-[2-(3-isopropoxy-propylamino)-ethyl]-2-methyl-thiazol-4-yl}-phenoxy)-pentyloxy]-benzamidine], the activity at 0.1 µM amounted to 69 ± 3.2%. The “% number of osteoclast” value under setting [1] is 53 ± 4.7^ab %. Also, under setting [2], the “% number of osteoclast” value is 40 ± 5.1^ac %.

Take `CCN(CC)c1nc(-c2ccc(OCCCCCOc3ccc(C(=N)NO)cc3)cc2)c(C(C)C)s1` [Compound 162, N-hydroxy-4-{5-[4-(5-isopropyl-2-diethylamino-1,3-thiazol-4-yl)phenoxy]pentyloxy}-benzamidine]: the activity at 0.1 µM came out at 98 ± 8.2%. Also, under setting [1], the “% number of osteoclast” value was 78 ± 1.8%. Also, the “% number of osteoclast” value under setting [2] is 61 ± 7.5^ac %.
